Data set [1] has as its target T1, mushroom tyrosinase (Agaricus bisporus, UniProt C7FF04). In words: Mushroom tyrosinase inhibitory assay (L-tyrosine substrate). Type of data set: biochemical. As to conditions: for inhibition at 50 µM / Tyrosinase Inhibition (%): L-tyrosine as substrate, mean ± SEM, NI means no inhibition, 50 μM. The protocol:
The experiment was repeated three times. Mushroom tyrosinase inhibitions % were calculated using:% Inhibition = [1 − (A/B)] × 100(1) where A is the absorbance of the test compound and B is the absorbance of the blank.
Log-linear curves were plotted, and their equations were determined.
Target sequence in this assay (C7FF04 1-392 limits assumed): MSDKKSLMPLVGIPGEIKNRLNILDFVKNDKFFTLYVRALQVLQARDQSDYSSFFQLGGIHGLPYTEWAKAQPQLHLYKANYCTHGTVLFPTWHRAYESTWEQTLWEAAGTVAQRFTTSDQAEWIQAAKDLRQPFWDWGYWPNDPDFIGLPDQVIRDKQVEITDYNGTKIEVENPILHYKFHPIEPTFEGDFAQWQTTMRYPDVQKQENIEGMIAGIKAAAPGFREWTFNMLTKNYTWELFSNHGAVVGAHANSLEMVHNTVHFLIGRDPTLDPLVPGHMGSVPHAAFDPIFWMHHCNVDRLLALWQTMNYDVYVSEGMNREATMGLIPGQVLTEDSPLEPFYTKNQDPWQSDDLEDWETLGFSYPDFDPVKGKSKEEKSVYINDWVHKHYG

The subject of data set [2] is B16F10 melanoma cells. Set-up: method as in PMID 28726389. The conditions noted are these: B16F10 melanoma cells ref 70; cited from earlier work.
Data set [3] concerns B16F10 melanoma cells. Also on record: method as in Su and co-workers. The conditions noted are these: at the same concentration (20 µM) ref Su and co-workers; cited from earlier work.
For data set [4], the target named is T1, mushroom tyrosinase. In words: Kinetic analysis of mushroom tyrosinase inhibition, Lineweaver–Burk plots. Format: biochemical. The method, then:
Briefly, 170 μL of a mixture of an aqueous solution of L-[…].0, 2.0, 4.0, or 8.0 mM and 50 mM of potassium phosphate (pH 6.5) was added to a 96-well plate. […] Lineweaver-Burk plots were used to determine Vmax (maximal reaction rates) and KM (Michaelis-Menten constants) of mushroom tyrosinase activities.
Target sequence in this assay (C7FF04 1-392): as the sequence (C7FF04 1-392 limits assumed) above

The nature of data set [5]: EZ-cytox cell viability assay. Type of data set: cell-based, murine. As to conditions: mouse, B16F10 melanoma cells, 20 µM. The protocol:
(§1) EZ-cytox assays were performed to examine whether these compounds are cytotoxic.
(§2) B16F10 murine melanoma cells were purchased from the American Type Culture Collection (ATCC, Manassas, VA, USA). Cells were cultured in Dulbecco’s modified Eagle’s medium (10% fetal bovine serum (FBS), and 1% streptomycin) obtained from Gibco/Thermo Fisher Scientific (Carlsbad, CA, USA) at 37 °C in a 5% CO2 environment. These cultured cells were used for cell viability, melanin content, and cellular tyrosinase inhibitory assays.
(§3) EZ-cytox assays were performed on 1c, 1h, and 2a, according to previously described. B16F10 cells were seeded in a 96-well plate at a density of 5 × 10^4 cells/well and incubated at 37 °C in a humidified 5% CO2 atmosphere overnight. Cells were then treated with different concentrations of 1c, 1h, or 2a (0, 1, 2, 5, 10, or 20 µM) and incubated for 24 h under the same conditions. EZ-cytox solution (10 µL) was then added and the plate was incubated for 3 h at 37 °C in a humidified 5% CO2 atmosphere. Optical densities of wells were measured at 450 nm using an ELISA reader. All experiments were independently repeated three times.

Data set [6] relates to B16F10 melanoma cells. Kind of data set: EZ-cytox cell viability assay. Type of data set: cell-based, murine. As to conditions: 1–20 µM, 24 h. The method, then:
as §1, §2, §3

The values below come from article PMC8199067, “Urolithin and Reduced Urolithin Derivatives as Potent Inhibitors of Tyrosinase and Melanogenesis: Importance of the 4-Substituted Resorcinol Moiety” (International Journal of Molecular Sciences, 2021).

Molecules are shown by their SMILES. Where “and” joins values, the source holds several entries; their conditions need not be identical. Equal entries are not always repeated. Where two headings read alike, the source gives them in different places.

As for `O=c1oc2cc(O)ccc2c2ccccc12` [Compound 1a, 3-Hydroxy-6H-benzo[c]chromen-6-one], on mushroom tyrosinase [1], the inhibition at 50 µM was less than 0%. Besides, the “Tyrosinase Inhibition (%)” value on mushroom tyrosinase [1] (listed as urolithin B) is given as “did not inhibit tyrosinase”; at mushroom tyrosinase [1] (listed as urolitin B) it was “did not show inhibitory activity”. Moreover, in the data set on B16F10 melanoma cells [2], the Antimelanogenic effect result was “antimelanogenic effects through tyrosinase inhibition”. For the same compound, the “Cytotoxicity compared with 1c and 1h” value in the data set with B16F10 melanoma cells [3] was “higher cytotoxicity”.
As for `O=c1oc2cc(O)ccc2c2ccc(O)cc12` [Compound 1e, 3,8-Dihydroxy-6H-benzo[c]chromen-6-one], the inhibition at 50 µM at mushroom tyrosinase [1] was less than 0%. Moreover, the “Tyrosinase Inhibition (%)” value on mushroom tyrosinase [1] (listed as urolithin A) was “did not show inhibitory activity”. The Antimelanogenic effect result with B16F10 melanoma cells [2] is given as “antimelanogenic effects through tyrosinase inhibition”. Moreover, the “Cytotoxicity compared with 1c and 1h” value with B16F10 melanoma cells [3] is “higher cytotoxicity”.
The compound `COc1ccc2c(c1)c(=O)oc1cc(O)cc(O)c12` [Compound 1h, 1,3-Dihydroxy-8-methoxy-6H-benzo[c]chromen-6-one] had an IC50 at mushroom tyrosinase [1] of 4.14 ± 0.1 µM. Also, the “Inhibition (%), single determinations” value at mushroom tyrosinase [1] (0.78 μM) is 15.61% and 18.94%; at mushroom tyrosinase [1] (1.56 μM) it was 24.63% and 31.11%; at mushroom tyrosinase [1] (3.13 μM) it was 48.92%; at mushroom tyrosinase [1] (6.25 μM), 63.95% and 66.79%. Besides, the inhibition at 0.78 µM was 16.7 ± 1.1% on mushroom tyrosinase [1] (0.78 μM, read-out: Average of Inhibition (%)) and 15.7% at mushroom tyrosinase [1] (0.78 μM, read-out: Inhibition (%), single determinations). For the same compound, the inhibition at 1.56 µM at mushroom tyrosinase [1] (1.56 μM, read-out: Average of Inhibition (%)) amounted to 28 ± 1.88%; on mushroom tyrosinase [1] (1.56 μM, read-out: Inhibition (%), single determinations), 28.3%. Moreover, the inhibition at 3.13 µM at mushroom tyrosinase [1] (3.13 μM, read-out: Average of Inhibition (%)) was found to be 48.78 ± 0.07%; on mushroom tyrosinase [1] (3.13 μM, read-out: Inhibition (%), single determinations), 48.7%. In addition, the inhibition at 6.25 µM at mushroom tyrosinase [1] (6.25 μM, read-out: Average of Inhibition (%)) was found to be 64.9 ± 0.94%; on mushroom tyrosinase [1] (6.25 μM, read-out: Inhibition (%), single determinations), 64%. Further, the “Tyrosinase Inhibition (%)” value on mushroom tyrosinase [1] is given as 94.86 ± 0.16%. This compound also returned an inhibition at 50 µM against mushroom tyrosinase [1] of 95%. Also, on mushroom tyrosinase [4] (Lineweaver–Burk analysis, L-tyrosine as substrate), the “Mode of tyrosinase inhibition” value is “competitive inhibitors”. In addition, the “Vmax” value at mushroom tyrosinase [4] (inhibitor 2.5 μM, L-tyrosine 1.0–8.0 mM) is 0.031 mM/min; at mushroom tyrosinase [4] (inhibitor 5 μM, L-tyrosine 1.0–8.0 mM) it was 0.031 mM/min; on mushroom tyrosinase [4] (inhibitor 10 μM, L-tyrosine 1.0–8.0 mM), 0.031 mM/min; at mushroom tyrosinase [4] (not dependent on inhibitor concentration), 0.031 mM/min. This compound gave a viability at 24 h, 20 µM in data set [5] of 70.8%. Further, the Cytotoxic effect result in the data set with B16F10 melanoma cells [6] was “weakly cytotoxic”.

By inhibition is commonly meant the relative decrease from the control value, in per cent. Broadly, the IC50 is the midpoint of a concentration-inhibition curve. What is called Vmax is the rate approached at saturating substrate. As usually defined, the viability is a per cent measure of how many cells are alive, often set against a control.
